Assay results published in ChEMBL document CHEMBL1129601, “Inhibitors of acyl-CoA: cholesterol O-acyl transferase (ACAT) as hypocholesterolemic agents. CI-1011: an acyl sulfamate with unique cholesterol-lowering activity in animals fed noncholesterol-supplemented diets” (J Med Chem, 1996).

What was measured:
Assay type in all cases: ADME
[1] = Solution Degradation Studies measured by compound unchanged at pH 6.4 = 50% water / 50% acetonitrile at 8 hours; conditions: 50% water / 50% acetonitrile solution, read-out: Unchanged
[2] = Solution Degradation Studies measured by compound unchanged at pH 0.4=50% 1 M HCl/50% acetonitrile at 8 hours; conditions: 50% 1 M HCl / 50% acetonitrile solution, read-out: Unchanged
[3] = Solution Degradation Studies measured by compound unchanged at pH 0.4=50% 1 M HCl/50% acetonitrile at 4 hours; conditions: 50% 1 M HCl / 50% acetonitrile solution, read-out: Unchanged
[4] = Solution Degradation Studies measured by compound unchanged at pH 6.4 = 50% water / 50% acetonitrile at 0 hours; conditions: 50% water / 50% acetonitrile solution, read-out: Unchanged
[5] = Solution Degradation Studies measured by compound unchanged at pH 0.4=50% 1 M HCl/50% acetonitrile at 2 hours; conditions: 50% 1 M HCl / 50% acetonitrile solution, read-out: Unchanged
[6] = Solution Degradation Studies measured by compound unchanged at pH 0.4=50% 1 M HCl/50% acetonitrile at 0 hours; conditions: 50% 1 M HCl / 50% acetonitrile solution, read-out: Unchanged
[7] = Solution Degradation Studies measured by compound unchanged at pH 6.4 = 50% water / 50% acetonitrile at 2 hours; conditions: 50% water / 50% acetonitrile solution, read-out: Unchanged
[8] = Solution Degradation Studies measured by compound unchanged at pH 6.4 = 50% water / 50% acetonitrile at 24 hours; conditions: 50% water / 50% acetonitrile solution, read-out: Unchanged
[9] = Solution Degradation Studies measured by compound unchanged at pH 6.4 = 50% water / 50% acetonitrile at 4 hours; conditions: 50% water / 50% acetonitrile solution, read-out: Unchanged
[10] = Solution Degradation Studies measured by compound unchanged at pH 0.4=50% 1 M HCl/50% acetonitrile at 24 hours; conditions: 50% 1 M HCl / 50% acetonitrile solution, read-out: Unchanged
[11] = Solution Degradation Studies measured by compound unchanged at pH 0.4=50%1 M HCl/50% acetonitrile at 2 hours; conditions: 50% 1 M HCl / 50% acetonitrile solution, read-out: Unchanged
[12] = Solution Degradation Studies measured by compound unchanged at pH 0.4=50%1 M HCl/50% acetonitrile at 8 hours; conditions: 50% 1 M HCl / 50% acetonitrile solution, read-out: Unchanged
[13] = Solution Degradation Studies measured by compound unchanged at pH 0.4=50%1 M HCl/50% acetonitrile at 4 hours; conditions: 50% 1 M HCl / 50% acetonitrile solution, read-out: Unchanged
[14] = Solution Degradation Studies measured by compound unchanged at pH 0.4=50%1 M HCl/50% acetonitrile at 0 hours; conditions: 50% 1 M HCl / 50% acetonitrile solution, read-out: Unchanged
[15] = Solution Degradation Studies measured by compound unchanged at pH 0.4=50%1 M HCl/50% acetonitrile at 24 hours; conditions: 50% 1 M HCl / 50% acetonitrile solution, read-out: Unchanged

CC(C)c1cccc(C(C)C)c1OC(=O)NS(=O)(=O)Oc1c(C(C)C)cccc1C(C)C [listing 1 of 2 here]
remaining at 8 h [1]: 74% | remaining at 8 h [2]: 66% | remaining at 4 h [3]: 80% | remaining at 0 h [4]: 95% | remaining at 2 h [5]: 88% | remaining at 0 h [6]: 95% | remaining at 2 h [7]: 87% | remaining at 24 h [8]: 37% | remaining at 4 h [9]: 85% | remaining at 24 h [10]: 23%

Cc1cccc(C)c1OC(=O)NS(=O)(=O)Oc1c(C(C)C)cccc1C(C)C
remaining at 8 h [1]: 48% | remaining at 8 h [2]: 37% | remaining at 4 h [3]: 57% | remaining at 0 h [4]: 94% | remaining at 2 h [5]: 71% | remaining at 0 h [6]: 93% | remaining at 2 h [7]: 79% | remaining at 24 h [8]: 20% | remaining at 4 h [9]: 65% | remaining at 24 h [10]: 5%

CC(C)c1cccc(C(C)C)c1OC(=O)NS(=O)(=O)Oc1c(C(C)C)cccc1C(C)C [listing 2 of 2 here]
remaining at 8 h [1]: 100% | remaining at 2 h [11]: 92% | remaining at 8 h [12]: 68% | remaining at 4 h [13]: 83% | remaining at 0 h [14]: 100% | remaining at 0 h [4]: 100% | remaining at 2 h [7]: 100% | remaining at 24 h [8]: 100% | remaining at 24 h [15]: 25% | remaining at 4 h [9]: 100%

CC(C)c1cccc(C(C)C)c1OS(=O)(=O)NC(=O)Oc1c(C(C)(C)C)cccc1C(C)(C)C
remaining at 8 h [1]: 99% | remaining at 8 h [2]: 98% | remaining at 4 h [3]: 99% | remaining at 0 h [4]: 100% | remaining at 2 h [5]: 100% | remaining at 0 h [6]: 100% | remaining at 2 h [7]: 100% | remaining at 24 h [8]: 98% | remaining at 4 h [9]: 99% | remaining at 24 h [10]: 97%
